{"source": "patent US4760052A", "about": "“1,6-dicarba-vasopressin compounds” (Smithkline Beckman Corporation, priority 1987, dated 1988)", "key": {"[1]": {"molecular_target": "vasopressin stimulated adenylate cyclase", "experiment": "vasopressin stimulated adenylate cyclase activity, kidney medullary membrane", "assay_type": "biochemical", "conditions": "Swine; antagonism of vasopressin stimulated adenylate cyclase", "procedure": "In the test procedure for assay of adenylate cyclase activity, the amount of ^32 P/cAMP formed in the absence of medullary membrane is determined (blank). The blank value is subtracted from all experimental data. The compound is tested for its effect on basal adenylate cyclase activity and/or on vasopressin stimulated activity. Each determination is carried out in triplicate. The Ka value is derived from a Lineweaver-Burkeplot. Rel. Vmax =(Vmax drug/Vmax vasopressin) x 100. Ki =I/[Ka'/Ka)-1] where I is the concentration of the antagonist and Ka' and Ka are the concentrations of vasopressin required to give half maximal activity of adenylate cyclase in the presence and absence of antagonist, respectively."}, "hydropenic rat": {"test_system": "hydropenic rat", "experiment": "Hydropenic Rat Screen (anti-ADH activity in vivo)", "conditions": "intraperitoneal, dose required to lower urine osmolality to 300 m-Osmoles/kg", "procedure": "The assay for anti-ADH activity in vivo is the hydropenic rat protocol described below:\nFood and water are removed from male rats approximately 18 hours prior to testing. Animals are housed 4 per metabolism cage. At 0 hour, the test compound is administered intraperitoneally to the test group and an equivalent volume of vehicle is administered to both control groups (fasted and non-fasted). Urine volume and osmolality are measured every hour for 4 hours. Test values are recorded as ml of urine excreted (cumulative), mEg/rat electrolyte excreted, mg/rat urea excreted, and osmolality in milli-Osmoles/kg H2 O. A […] is used to determine significance. ED300 is defined as the dose of compound (μg/kg) required to lower urine osmolality to 300 m-Osmoles/kg."}, "[2]": {"molecular_target": "vasopressin receptors (V2 -receptors) (Sus scrofa, UniProt P32307)", "sequence (P32307 whole entry)": "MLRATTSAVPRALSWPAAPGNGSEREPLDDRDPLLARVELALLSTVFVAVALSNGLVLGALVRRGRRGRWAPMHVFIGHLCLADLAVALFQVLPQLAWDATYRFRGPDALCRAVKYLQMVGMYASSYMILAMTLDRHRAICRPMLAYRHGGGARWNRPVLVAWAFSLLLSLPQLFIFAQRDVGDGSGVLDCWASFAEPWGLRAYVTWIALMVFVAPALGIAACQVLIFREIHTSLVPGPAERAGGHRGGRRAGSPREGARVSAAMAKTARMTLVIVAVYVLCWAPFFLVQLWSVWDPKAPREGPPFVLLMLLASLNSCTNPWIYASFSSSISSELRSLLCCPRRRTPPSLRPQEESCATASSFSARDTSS", "experiment": "biochemical", "protocol": "Antagonistic activity toward the natural anti-diuretic hormone (anti ADH activity) is determined, in vitro, in the medullary tissue of hog or human kidneys and, in vivo, in the hydropenic rat.\nThese values represent total and non specific binding, respectively."}}, "note": "*1 amine or outer side, *2 acyl side, *3 side chain or, on linkers, in order; H or OH if unused. Where a SMILES comes first, the peptide text is derived from it. Bridges are numbered along the chain shown (N, C = ends). [ ]: non-standard residue; d: D form. X1 = O=C(CC1(S[*:2])CCCCC1)[*:1]", "data": [{"smiles": "CCOc1ccc(C[C@H]2NC(=O)CC3(CCCCC3)CCC[C@@H](C(=O)N3CCC[C@H]3C(=O)N[C@@H](CCCNC(=N)N)C(N)=O)NC(=O)[C@H](CC(N)=O)NC(=O)[C@H](C(C)C)NC(=O)[C@H](Cc3ccccc3)NC2=O)cc1", "note": "[Compound C, [1,6(6,6-cyclopentamethylene-2-amino-L-suberic acid)2-(O--ethylD-tyrosine)-4-valine-9-desglycine]vasopressin]", "values": [{"measurement": "Ki", "setting": "[1]", "result": 4.3, "unit": "nM"}, {"measurement": "ED300", "setting": "hydropenic rat", "result": 8.9, "unit": "µg/kg"}, {"measurement": "Kb", "setting": "[2]", "result": 8.2, "unit": "nM"}]}, {"smiles": "CCOc1ccc(C[C@H]2NC(=O)CC3(CCCCC3)SSC[C@H](C(=O)N3CCC[C@H]3C(=O)N[C@@H](CCCNC(=N)N)C(N)=O)NC(=O)[C@H](CC(N)=O)NC(=O)[C@H](C(C)C)NC(=O)[C@H](Cc3ccccc3)NC2=O)cc1", "note": "[B, reference compound] ([dY](Et)FVN[dC]PR-NH2; linker N-5 via X1)", "values": [{"measurement": "Kb", "setting": "[2]", "result": 170, "unit": "nM"}]}, {"smiles": "CCOc1ccc(C[C@H]2NC(=O)CC3(CCCCC3)CCC[C@H](C(=O)N3CCC[C@H]3C(=O)N[C@@H](CCCNC(=N)N)C(N)=O)NC(=O)[C@H](CC(N)=O)NC(=O)[C@H](C(C)C)NC(=O)[C@H](Cc3ccccc3)NC2=O)cc1", "note": "[Compound D, [1,6(6,6-cyclopentamethylene-2-amino-D-suberic acid)2-(O--ethy1D-tyrosine)-4-valine-9-desglycine]vasopressin]", "values": [{"measurement": "Kb", "setting": "[2]", "result": 72, "unit": "nM"}]}, {"smiles": "CCOc1ccc(C[C@H]2NC(=O)CC3(CCCCC3)SSC[C@@H](C(=O)N3CCC[C@H]3C(=O)N[C@@H](CCCNC(=N)N)C(N)=O)NC(=O)[C@H](CC(N)=O)NC(=O)[C@H](C(C)C)NC(=O)[C@H](Cc3ccccc3)NC2=O)cc1", "note": "[A, [1(mercapto-β,cyclopentamethylenepropionic acid)2-(O--ethylD-tyrosine)-4-valine-8-arginine-9-desglycine]vasopressin, reference compound] ([dY](Et)FVNCPR-NH2; linker N-5 via X1)", "values": [{"measurement": "Kb", "setting": "[2]", "result": 12, "unit": "nM"}]}]}
